{"source": "patent US20230210867A1", "about": "“TREATMENT OF ADJUSTMENT DISORDERS” (VISTAGEN THERAPEUTICS, INC., priority 2020, published 2023)", "key": {"[1]": {"conditions": "all clinical studies to date; cited from earlier work"}, "[2]": {"system": "symptoms of social anxiety disorder (SAD)", "conditions": "earlier clinical studies; cited from earlier work"}, "[3]": {"system": "Adjustment Disorder with Anxiety (AjDA) symptoms in adults", "experiment": "Phase 2A clinical trial of PH94B neuroactive nasal spray in Adjustment Disorder with Anxiety (AjDA)", "assay_type": "in vivo, human", "conditions": "adult subjects with AjDA, compared to placebo", "from_the_text": "A clinical trial is designed and conducted to evaluate the efficacy, safety and tolerability of daily administration of PH94B neuroactive nasal spray (Example 1) as a treatment of Adjustment Disorder with Anxiety (AjDA) symptoms in adults, associated with identifiable stressors related to the COVID-19 pandemic. Subject are confirmed with current diagnoses of this condition as defined in the Diagnostic and Statistical Manual of Mental Disorders, 5th Edition (DSM-5).\nThe PH94B study drug is delivered intranasally with the nozzle of the applicator positioned in the nasal vestibule and directed toward the midline (medial part or nasal septum). In order to administer study medication, the actuator (pusher) should be depressed.\nPrior to the use of a new study medication bottle, the subject is instructed to shake the bottle five times and to prime the bottle by depressing the actuator five times. […]\n1. Individual subject improvement as assessed by the Sheehan Disability Scale (SDS) at the end of week 4 of treatment with PH94B compared to placebo.\n2. Individual subject improvement as assessed by the Clinical Global Impression-Improvement rating (CGI-I). […]\n3. Individual subject improvement as assessed by the subject's self-assessment of improvement (PGI-C) at the end of week 4 of treatment with PH94B compared to placebo. […]"}}, "data": [{"smiles": "C[C@@]12C=CC[C@H]1[C@@H]1CCC3=C[C@@H](O)CC[C@]3(C)[C@H]1CC2", "note": "[PH94B, [3β]-androsta-4,16-dien-3-ol]", "values": [{"measurement": "safety in clinical studies", "setting": "[1]", "result": "safe"}, {"measurement": "efficacy in treating symptoms of social anxiety disorder (SAD)", "setting": "[2]", "result": "significant efficacy"}, {"measurement": "anxiety levels as measured by the Hamilton Anxiety Scale (HAM-A)", "setting": "[3]; 3.2 μg intranasal four times per day, four weeks", "result": "statistically significant reduction in anxiety levels"}, {"measurement": "secondary endpoints (SDS, CGI-I, PGI-C, ADNM)", "setting": "[3]; end of week 4 of treatment", "result": "statistically significant improvement"}]}]}
